One may read the melting point as the temperature of the solid-liquid transition. Compound `COc1ccc(Nc2c([N+](=O)[O-])cc([N+](=O)[O-])c(Cl)c2C(=O)O)cc1` had a melting point of 241 to 245 °C.

Take `COc1ccc(N2CCOCC2)c2sc(-c3nc4c([nH]3)CCN(CC(N)=O)CC4)nc12`: the melting point lay within 299 to 302 °C.

As for `O=C(SCC(SC(=O)c1ccccc1)C(=O)O)c1ccccc1` (configuration not stated), the melting point was 116 to 118 °C.

`CC(C)(C)OC(=O)NCCCCCCCCNC(=O)OC(C)(C)C` came in with a melting point of 96 to 97 °C.

`COc1ccccc1OCCCc1oc(-n2ccnc2C)nc1-c1ccc(Cl)cc1` registered a melting point of 84 to 85 °C.

`COCCC1(C(=O)N[C@@H](Cc2ccc(NC(=O)c3c(Cl)cccc3Cl)cc2)C(=O)OC)CCCC1`: the melting point fell in the range of 85 to 87 °C.

Turning to `COc1cc(F)ccc1C(F)C1CCCCn2c1nc(-c1ccncn1)cc2=O` (racemic), the melting point fell in the range of 228 to 230 °C.

As to `C[C@@H]1CN(C(=O)OC(C)(C)C)C[C@H]2Cc3cc(F)c(C=O)nc3N21`, the melting point was 139 to 140 °C.

The compound `CC(C)(C)C1C=C(Cn2nc(-c3ccccc3-c3nn(CC4=CC(C(C)(C)C)C(O)(C(C)(C)C)C=C4)c(=O)o3)oc2=O)C=CC1(O)C(C)(C)C` (configuration not stated) displayed a melting point of 220 °C.

`CCCCC(Nc1ccncc1)c1ccccc1` (configuration not stated) came in with a melting point of 118 °C.

`Cc1cc(OCc2sc(-c3ccc(C(F)(F)F)cc3)nc2C)ccc1OC(C)(C)C(=O)O`: the melting point was determined as 154 °C.

Regarding `C#CCOc1ccc(C(=O)C=Cc2c(OC)cc(OC)cc2OC)c(O)c1`, the melting point lay in the range of 177 to 179 °C.

In turn, `O=C(O)c1cn(Cc2cccc(Oc3ccccc3)c2)nc1-c1ccccc1` registered a melting point of 148 to 149 °C.

Consider `N#CC1=Cc2cc(Br)ccc2OC1`, for which the melting point is 132 to 133 °C.

As to `CCC(=NOCCO)c1ccc(-c2ccccc2)cc1`, the melting point amounted to 76 °C.

`CN1C2C=C(c3ccc(F)cc3)CC1CC2` (configuration not stated) came in with a melting point of 62 to 63 °C.

`CS(=O)(=O)c1ccc(-c2cc3c(cc2Cc2cc(F)cc(F)c2)OCCO3)cc1` showed a melting point of 160 to 162 °C.

For `COC(C)CC(=O)NC1CCC(CCN2CCN(c3nccc4c3CCO4)CC2)CC1` (configuration not stated), the melting point was 167 °C.

The compound `CCOc1nc(-c2ccc(NC(=O)NCc3cccnc3)cc2)ccc1C(=O)NC` had a melting point of 200 °C.

In turn, `COC(=O)N1c2cc(OC)c(OC)cc2C(=O)CC1C` (configuration not stated) gave a melting point of 156 to 158 °C.

Regarding `O=c1c2ccc(Cl)cc2nc2n1CS(=O)(=O)N2`, the melting point is over 300 °C.

The compound `COc1ccc(C(=O)Nc2ccccc2)cc1NCc1ccoc1` yielded a melting point of 188 to 190 °C.

Compound `COc1ccc(C=NNC(=O)c2ccc(O)cc2)cc1` displayed a melting point of 209 °C.

Compound `CNc1c(NCCSCc2csc(CN(C)C)n2)c(=O)c1=O` returned a melting point of 163 to 167 °C.

`ClCc1ccc(-c2ccc(CCl)cc2)cc1`: the melting point is 137 to 138 °C.

In turn, `CCc1cc(C(C)=O)c(O)cc1OCCCCCC(C)(C)C(N)=O` displayed a melting point of 73 to 74 °C.

The compound `NS(=O)(=O)c1ccc(N2CC(=O)N(c3ccccc3)C2=O)cc1` returned a melting point of 255 to 257 °C.

Regarding `CC(=O)NC(C(=O)Nc1ccc(C(=O)OCc2ccccc2)cc1)c1ccc2c(c1)C(C)(C)CCC2(C)C` (configuration not stated), the melting point is 258 to 259 °C.

Turning to `CC(=O)Nc1ccc(OCc2nc3ccccc3o2)cc1C`, the melting point was 160 °C.

For the compound `Cc1ncn(C)c1CO`, the melting point lay in the range of 125 to 127 °C.

`CCOC(=O)C(Cc1cnc2ccc(OC)cc2c1)(NC(C)=O)C(=O)OCC` registered a melting point of 151 to 152 °C.

Regarding `Cc1ccc(C(=O)c2c(OCc3ccccc3)cc(C(=O)O)cc2[N+](=O)[O-])cc1`, the melting point lay in the range of 222 to 223 °C.

Regarding `CC(=O)OC(C)(C)C(=O)Nc1c(C(=O)c2ccccc2)[nH]c2cc(Cl)ccc12`, the melting point lay within 162 to 165 °C.

Consider `Cc1cccc2c(C(=O)O)c(O)c(-c3ccc(-c4ccccc4)cc3)nc12`, for which the melting point was in the range of 178 to 180 °C.

Compound `NC(=O)c1ccc(Oc2nccc(-c3c(-c4ccc(F)cc4)ncn3C3CCNCC3)n2)cc1` yielded a melting point of 229 to 230 °C.

Compound `COC1C(OC(=O)N2CCOCC2)CCC2(CO2)C1C1(C)OC1CCOCc1ccccc1` (configuration not stated) showed a melting point of 96 to 97 °C.

`COCOC1CCC2(C)C(=CCC3C2CCC2(C)C(CO)CCC32)C1` (configuration not stated) registered a melting point of 102 to 105 °C.

Consider `CCN(C=NS(=O)(=O)NC(=O)Nc1nc(OC)cc(OC)n1)CSC`, for which the melting point was in the range of 143 to 144 °C.

As for `COc1cc(OCc2nc(-c3ccco3)oc2C)ccc1COc1nn(Cc2ccccc2)cc1C=O`, the melting point is 147 to 148 °C.

The compound `Cc1cc(-c2ccc(C(F)(F)F)c(C)c2)nc(-c2cccc(-c3ccc(S(N)(=O)=O)s3)c2)n1` gave a melting point of 242 °C.

`CCCCc1ccc(COC(=O)NC2CN3CCC2CC3)cc1` (configuration not stated) gave a melting point of 174 to 175 °C.

`CCOC(=O)C1C(=O)CC(C)(O)C(C(=O)OCC)C1c1cc(Br)c2oc(C)c(C)c2c1` (configuration not stated) yielded a melting point of 194 to 195 °C.

Compound `CCCNc1ncc2c(=O)[nH]c(-c3ccccc3OCCC)nc2n1` had a melting point of 185 to 187 °C.

Compound `O=C(O)CCCC=Cc1nn(-c2ccccc2)c2c1CCC2` showed a melting point of 130 to 131 °C.

`CNC(=O)c1ccccc1Nc1nc(Nc2cccc3c2C(=O)N(C)CCN3C)ncc1Cl` displayed a melting point of 204 °C.

`Cc1nc(S(=O)(=O)Cc2ccc(Cl)cc2)nc2c1CCCC2` had a melting point of 151 °C.

With `C[C@@H](S[C@H]1CC[C@H](/C=C/c2ccc(Cl)cc2)CC1)[C@](O)(Cn1cncn1)c1ccc(F)cc1F`, the melting point was 64 to 66 °C.

Consider `Cc1[nH]cnc1CN1CCc2c(c3cccc(OCc4ccccc4)c3n2COCc2ccccc2)C1=O`, for which the melting point is 170 to 172 °C.

In the case of `N#Cc1ccc2c(c1)C(=C(Cl)Cl)OC(=C(Cl)Cl)O2`, the melting point lay within 167 to 168 °C.

Compound `Cc1nc(N2CCC(NCCC3CC3)C2=O)sc1C(=O)NCc1ccc(F)cc1` (configuration not stated) returned a melting point of 151 to 152 °C.

In the case of `CC(=O)Nc1ccccc1C(=O)NCCN1[C@H](C)Cc2ccsc2[C@@H]1C` (relative stereo), the melting point lay within 108 to 112 °C.

The compound `CCCCc1cn(CCCC)c(=O)n1Cc1ccc(-c2ccccc2-c2nnn[nH]2)nc1` displayed a melting point of 170 to 171 °C.

Take `NS(=O)(=O)c1ccccc1C(=S)N1CCCC1`: the melting point was 186 to 187 °C.

`O=C(CCc1ccccc1)Nc1ccc2c(c1)C(=O)c1cc(NC(=O)CCc3ccccc3)ccc1C2=O` showed a melting point of 268 °C.

With `CC1=C(C)C(=O)C(CN2C(=O)[C@H]3CCC[C@H]3N(C(=O)CN3C(=O)c4ccccc4C3=O)c3ccccc32)=C(C)C1=O` (relative stereo), the melting point is 258 to 260 °C.

For the compound `CC(=O)Nc1cccc2c1CCCC2`, the melting point was determined as 158 °C.

Compound `COC(=O)CCc1nc(I)ccc1O` came in with a melting point of 145 to 148 °C.

`CC(=O)c1ccc(SCc2cc3c(cc2O)CCCO3)cc1`: the melting point fell in the range of 192 to 193 °C.

In turn, `CS(=O)(=O)NC(=O)Nc1ccc(Cl)cc1` displayed a melting point of 225 to 235 °C.

`CC(=O)Nc1ccc2ccn(C3CCN(CCc4ccc(F)cc4)CC3)c2c1` came in with a melting point of 195 to 196 °C.

The compound `COc1cc(Br)c(OC)c2c1C=CCC2` came in with a melting point of 110 to 111 °C.

Compound `COc1ccc(C(=O)CNc2ccccc2)cc1` registered a melting point of 105 to 106 °C.

Source of the values: a melting point compilation (Tetko et al.; mined from patent text by program, amines drawn as free bases though some values may be those of a salt).
